The nature of data set [1]: Urine levels of leuprorelin and leuprorelin (5-9) in patients after leuprorelin administration (LC/MS-IT-TOF). The note with it: SPE; for detection level in urine, 3 h / detection level in urine, 6 h: first time, prostate cancer patient.
Procedure: (§1) Sample analysis was carried out by using the LCMS-IT-TOF Prominence system (Shimadzu, Japan) and LC model UPLC 8040 [18]. The analytical column was a Poroshell 120 EC-C18 (2.1 mm × 150 mm, 2.7 μm particle) coupled with a guard column (SecurityGuard^TM C18, 3.0 mm). The column compartment temperature was set at 30 °C. The autosampler unit temperature was set at 10 °C. Dry gas was set at 47 kPa, and nebulizer gas was set at 1.5 L/min. The curved desolvation line (CDL) and heating block temperature were set at 250 °C. The spray voltage was set at 4 kV.
(§2) Urine samples were collected at the Division of Urology, Department of Surgery, Faculty of Medicine, Ramathibodi Hospital, Bangkok, Thailand. […] Urine samples were collected at 0.0, 3.0, and 6.0 h from 5 patients who had received either 11.25 mg of Enantone® L.P (leuprorelin acetate) or Diphereline® P.R. (triptorelin pamoate) intramuscularly for the first time.
(§3) In this study, 200 mL of sodium phosphate buffer (pH 6.8; 0.8 M) was added to a 3.0 mL aliquot of urine. The batch of samples was centrifuged at 5000 rpm for 5 min at 5 °C. The supernatant from each tube was transferred to a new set of protein LoBind® tubes, Eppendorf (Melbourne, Australia) and 20 μL of ISTD (see Section 4.3) was added to each sample [17]. SPE cartridges (see Section 4.1) were activated with 2 mL of methanol followed by 2 mL of ultra-pure water. The supernatants were slowly loaded onto the SPE cartridges (flow rate is approximately 1.0 mL/min) and washed with 1 mL of water, followed by 1 mL of freshly prepared 10% v/v aqueous methanol; then, all washing solutions were removed and dried using a vacuum pump. Elution was performed using freshly prepared 10% v/v formic acid in methanol. Eluates were evaporated at 45 °C to approximately 10 μL in a vacuum centrifuge. The residues were reconstituted in 50 μL of freshly prepared 0.1% formic acid in water.
(§4) The mobile phases were 0.1% formic acid in water with or without 1% DMSO (mobile phase A) and acetonitrile (mobile phase B) at a flow rate of 0.3 mL/min. The mobile phase gradient program was as follows: 0.0–2.0 min, 20 to 30% B; 2.0–4.0 min, 30 to 45% B; 4.0–5.0 min, 45 to 100% B; 5.0–6.0 min, hold at 100% B; 6.0–7.0 min, 100% to 20% B; and 7.0–9.0 min hold at 20% B (column equilibration). The injection volume was 30 μL. The total runtime is 9 min.
(§5) Mass spectrometric analysis was employed both in the full-scan mode and MS-MS mode. Data analysis was performed using 2 product ion transitions for each compound. LC/MS-IT-TOF mass spectrometric variables, including the m/z of product ions, ion accumulation time, and collision energy (CE), were optimized for maximum abundance for each ion transition. Ionization was performed using ESI in the positive ion mode at 3500 V. The ion accumulation time was 10 milliseconds, and the isolation width was 1.5 Dalton.
(§6) The mean and standard deviation of the concentration of leuprorelin, leuprorelin (5-9), triptorelin, and triptorelin (5-10) from 5 patients were used for statistical analysis.
The nature of the next data set: clinical. The note with it: human, in vivo, im, 11.25 mg, detection level in urine, mean.
Data set [2] is described as follows: Urine levels of triptorelin and triptorelin (5-10) in patients after triptorelin administration (LC/MS-IT-TOF). The data set is classed as in vivo, human. The settings on record: for detection level in urine, 3 h / detection level in urine, 6 h: first time, prostate cancer patient. As for the experimental part: The column compartment temperature was set at 30 °C. The autosampler unit temperature was set at 10 °C. […] The spray voltage was set at 4 kV.
A further urine sample was collected one month later.
The injection volume was 30 μL. The total runtime is 9 min.

The conditions of data set [3]: in vivo; cited from earlier work.

Non-standard residues stand in square brackets, D forms with d. Residues, ends and D or L forms follow the SMILES beside them.

Procedure for clinical: as §1, §2, §3, §4, §5, §6

As to `CCNC(=O)[C@@H]1CCCN1C(=O)[C@H](CCCNC(=N)N)NC(=O)[C@H](CC(C)C)NC(=O)[C@@H](CC(C)C)NC(=O)[C@@H](N)Cc1ccc(O)cc1` [Leuprorelin (5-9), leuprorelin (5-9)] (H-Y[dL]LRP-NHEt), in data set [1] (mean of n = 5 patients, urine 3 h after 11.25 mg Enantone L.P (leuprorelin acetate) intramuscularly), the “detection level in urine, 3 h, mean” value is reported as 74.8 ng/mL. Also, the “detection level in urine, 6 h, mean” value in data set [1] (mean of n = 5 patients, urine 6 h after 11.25 mg Enantone L.P (leuprorelin acetate) intramuscularly) came to 78.9 ng/mL. For the same compound, the “detection level in urine, 3 h” value stood at 68.0 ng/mL in data set [1] (patient 1, urine 3 h after 11.25 mg Enantone L.P (leuprorelin acetate) intramuscularly); 106.9 ng/mL in data set [1] (patient 2, urine 3 h after 11.25 mg Enantone L.P (leuprorelin acetate) intramuscularly); 162.9 ng/mL in data set [1] (patient 3, urine 3 h after 11.25 mg Enantone L.P (leuprorelin acetate) intramuscularly); 16.7 ng/mL in data set [1] (patient 4, urine 3 h after 11.25 mg Enantone L.P (leuprorelin acetate) intramuscularly); 19.3 ng/mL in data set [1] (patient 5, urine 3 h after 11.25 mg Enantone L.P (leuprorelin acetate) intramuscularly). Also, the “detection level in urine, 6 h” value in data set [1] (patient 1, urine 6 h after 11.25 mg Enantone L.P (leuprorelin acetate) intramuscularly) was determined as 73.1 ng/mL; in data set [1] (patient 2, urine 6 h after 11.25 mg Enantone L.P (leuprorelin acetate) intramuscularly), 18.7 ng/mL; in data set [1] (patient 3, urine 6 h after 11.25 mg Enantone L.P (leuprorelin acetate) intramuscularly), 100.4 ng/mL; in data set [1] (patient 4, urine 6 h after 11.25 mg Enantone L.P (leuprorelin acetate) intramuscularly) it was 23.8 ng/mL; in data set [1] (patient 5, urine 6 h after 11.25 mg Enantone L.P (leuprorelin acetate) intramuscularly) it was 178.7 ng/mL.

Turning to `CCNC(=O)[C@@H]1CCCN1C(=O)[C@H](CCCNC(=N)N)NC(=O)[C@H](CC(C)C)NC(=O)[C@@H](CC(C)C)NC(=O)[C@H](Cc1ccc(O)cc1)NC(=O)[C@H](CO)NC(=O)[C@H](Cc1c[nH]c2ccccc12)NC(=O)[C@H](Cc1c[nH]cn1)NC(=O)[C@@H]1CCC(=O)N1` [Leuprorelin, leuprorelin], the level at 3 h in the data set “clinical” (3 h) turned out to be 65 ng/mL. For the same compound, the level at 6 h in the data set “clinical” (6 h) amounted to 106 ng/mL.

`CC(C)C[C@H](NC(=O)[C@@H](Cc1c[nH]c2ccccc12)NC(=O)[C@@H](N)Cc1ccc(O)cc1)C(=O)N[C@@H](CCCNC(=N)N)C(=O)N1CCC[C@H]1C(=O)NCC(N)=O` [Triptorelin (5-10), triptorelin (5-10)] (H-Y[dW]LRPG-NH2): the “detection level in urine, 1 month, mean” value in data set [2] (mean line, n = 5 for triptorelin, n = 3 for triptorelin (5-10), urine 1 month after 11.25 mg Diphereline P.R. (triptorelin pamoate) intramuscularly, ND = not detectable) was 0.7 ng/mL. Further, the “detection level in urine, 3 h, mean” value in data set [2] (mean of n = 5 patients, urine 3 h after 11.25 mg Diphereline P.R. (triptorelin pamoate) intramuscularly, SPE, LC/MS-IT-TOF) was 105.5 ng/mL. Besides, the “detection level in urine, 1 month” value was 1.2 ng/mL in data set [2] (patient 1, urine 1 month after 11.25 mg Diphereline P.R. (triptorelin pamoate) intramuscularly, ND = not detectable, SPE, LC/MS-IT-TOF); 0.3 ng/mL in data set [2] (patient 2, urine 1 month after 11.25 mg Diphereline P.R. (triptorelin pamoate) intramuscularly, ND = not detectable, SPE, LC/MS-IT-TOF); 0.6 ng/mL in data set [2] (patient 5, urine 1 month after 11.25 mg Diphereline P.R. (triptorelin pamoate) intramuscularly, ND = not detectable, SPE, LC/MS-IT-TOF). In addition, the “detection level in urine, 3 h” value in data set [2] (patient 1, urine 3 h after 11.25 mg Diphereline P.R. (triptorelin pamoate) intramuscularly, SPE, LC/MS-IT-TOF) was 84.3 ng/mL; in data set [2] (patient 2, urine 3 h after 11.25 mg Diphereline P.R. (triptorelin pamoate) intramuscularly, SPE, LC/MS-IT-TOF), 25.3 ng/mL; in data set [2] (patient 3, urine 3 h after 11.25 mg Diphereline P.R. (triptorelin pamoate) intramuscularly, SPE, LC/MS-IT-TOF), 12.8 ng/mL; in data set [2] (patient 4, urine 3 h after 11.25 mg Diphereline P.R. (triptorelin pamoate) intramuscularly, SPE, LC/MS-IT-TOF), 225.7 ng/mL; in data set [2] (patient 5, urine 3 h after 11.25 mg Diphereline P.R. (triptorelin pamoate) intramuscularly, SPE, LC/MS-IT-TOF), 179.1 ng/mL. In addition, the “detection level in urine, 6 h” value in data set [2] (patient 1, urine 6 h after 11.25 mg Diphereline P.R. (triptorelin pamoate) intramuscularly, SPE, LC/MS-IT-TOF) came out at 24.7 ng/mL; in data set [2] (patient 2, urine 6 h after 11.25 mg Diphereline P.R. (triptorelin pamoate) intramuscularly, SPE, LC/MS-IT-TOF), 43.5 ng/mL; in data set [2] (patient 3, urine 6 h after 11.25 mg Diphereline P.R. (triptorelin pamoate) intramuscularly, SPE, LC/MS-IT-TOF) it was 3.2 ng/mL; in data set [2] (patient 4, urine 6 h after 11.25 mg Diphereline P.R. (triptorelin pamoate) intramuscularly, SPE, LC/MS-IT-TOF), 250.6 ng/mL; in data set [2] (patient 5, urine 6 h after 11.25 mg Diphereline P.R. (triptorelin pamoate) intramuscularly, SPE, LC/MS-IT-TOF), 202.0 ng/mL.

In the case of `CC(C)C[C@H](NC(=O)[C@@H](Cc1c[nH]c2ccccc12)NC(=O)[C@H](Cc1ccc(O)cc1)NC(=O)[C@H](CO)NC(=O)[C@H](Cc1c[nH]c2ccccc12)NC(=O)[C@H](Cc1c[nH]cn1)NC(=O)[C@@H]1CCC(=O)N1)C(=O)N[C@@H](CCCNC(=N)N)C(=O)N1CCC[C@H]1C(=O)NCC(N)=O` [Triptorelin, triptorelin], the level at 3 h in data set [2] (human, urine, im, 11.25 mg, mean of n = 5 patients, urine 3 h after 11.25 mg Diphereline P.R. (triptorelin pamoate) intramuscularly, SPE, LC/MS-IT-TOF, read-out: detection level in urine, 3 h, mean) was 64.1 ng/mL. The level at 6 h in data set [2] (human, urine, im, 11.25 mg, mean of n = 5 patients, urine 6 h after 11.25 mg Diphereline P.R. (triptorelin pamoate) intramuscularly, SPE, LC/MS-IT-TOF, read-out: detection level in urine, 6 h, mean) stood at 62.6 ng/mL.

In the case of “GnRH: endogenous 10-amino-acid peptide synthesized and produced in the hypothalamus”, in data set [3], the half-life is given as 2 min.

As a reminder, the half-life is the time in which the quantity being followed falls by half.

The values are drawn from PMC10302202, “The Finding of New In Vivo Metabolite Triptorelin (5-10) in Human Urine Using Liquid Chromatography Coupled with Ion Trap/Time-of-Flight Mass Spectrometry with Dimethyl Sulfoxide Additives in the Mobile Phase” (Molecules, 2023).
